From patent publication US6894053B2, “Serotonergic agents with long-acting in vivo effects” (Wyeth, priority 2001, dated 2005)
Where a name gives a salt, the structure may show the parent alone.

Assays:
5-HT1A [1] = target: T1, 5-HT1A (Rattus norvegicus, UniProt P19327); assay: Ex vivo binding of [3H]-WAY-100635: 5-HT1A receptor occupancy in rat brain; conditions: for [3H]-WAY-100635 remaining in membrane preparation: 3 mg/kg ip
T1 construct: from tissue; host or cells: rat brain (cortex and hippocampus membranes in the ex vivo assay; whole animal in the behavioural model)
T1 sequence (P19327 1-422): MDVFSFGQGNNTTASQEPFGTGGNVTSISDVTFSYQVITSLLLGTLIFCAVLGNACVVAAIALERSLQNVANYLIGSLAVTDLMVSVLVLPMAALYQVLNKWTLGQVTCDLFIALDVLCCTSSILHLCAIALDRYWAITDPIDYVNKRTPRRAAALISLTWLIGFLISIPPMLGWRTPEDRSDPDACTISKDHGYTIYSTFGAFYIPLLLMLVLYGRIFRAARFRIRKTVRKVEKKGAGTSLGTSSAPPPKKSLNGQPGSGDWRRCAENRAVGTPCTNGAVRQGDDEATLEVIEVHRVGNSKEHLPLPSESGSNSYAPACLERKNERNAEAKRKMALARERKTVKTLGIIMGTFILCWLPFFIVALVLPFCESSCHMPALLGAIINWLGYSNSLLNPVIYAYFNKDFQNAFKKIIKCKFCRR
Experimental: The serotonergic 5-HT1A receptor occupancy in vivo of the compounds of this invention was determined using ex vivo binding techniques. Rats were injected with a 3 mg/kg ip dose of Example 1 or vehicle and then sacrificed after 1, 24, 72, 168, and 336 hours. […] Tissue was prepared by homogenization and washed once with buffer. Serotonergic 5-HT1A receptors were measured in the membrane preparation using the standard 5-HT1A receptor antagonist [^3H]-WAY-100635 (85 Ci/mmol). Specific binding was determined in the presence of […] methiothepin. The ability of the test compounds to displace [^3H]-WAY-100635 from the 5-HT1A receptor was then determined and expressed as the fmol/mg protein of [^3H]-WAY-100635 remaining in the membrane preparation after treatment with the test compound.

5-HT1A [2] = target: T1, 5-HT1A; assay: Fixed Responding Model (fixed-ratio 30 food schedule), antagonism of 8-OH-DPAT; assay type: in vivo
Experimental: The ability of the compounds of this invention to function in vivo as 5-HT1A antagonists was assessed in rats using a Fixed Responding Model (Blackman, D., in, “Operant Conditioning: An Experimental Analysis of Behavior”, J. Butcher, Ed., Methuen and Co., Ltd., London). In this model rats are trained to respond (lever pressing) under a fixed-ratio 30 schedule of food presentation in order to receive a food pellet reinforcer. […] 5-HT1A antagonist activity is assessed by determining the test compound's ability to antagonize this decrease in response rate induced by administration of the agonist.

With COc1ccccc1N1CCN(C[C@@H](CC2CCCCC2)NC(=O)C2(C)CCCCC2)CC1 (as salt: hydrochloride) (hydrate or solvate) [Example 1, 1-Methyl-cyclohexanecarboxylic acid {(1R)-1-cyclohexylmethyl-2-[4-(2-methoxyphenyl)-piperazin-1-yl]-ethyl}-amide hydrochloride hydrate] the melting point was 119 to 121 °C.
In the case of COc1ccccc1N1CCN(C[C@@H](CC2CCCCC2)NC(=O)C2(C)CCCCC2)CC1 [Example 1, 1-Methyl-cyclohexanecarboxylic acid {(1R)-1-cyclohexylmethyl-2-[4-(2-methoxyphenyl)-piperazin-1-yl]-ethyl}-amide hydrochloride hydrate], the “[3H]-WAY-100635 remaining in membrane preparation” value (from here on “[3H]-WAY-100635 remaining”) (5-HT1A [1]; 1 hour, cortex) is reported as 4.0 ± 0.1 fmol/mg protein, the “[3H]-WAY-100635 remaining” value (5-HT1A [1]; 1 hour, striat.) is reported as 6.0 ± 0.3 fmol/mg protein and the “[3H]-WAY-100635 remaining” value (5-HT1A [1]; 24 hour, cortex) is reported as 8.0 ± 0.6 fmol/mg protein. The “[3H]-WAY-100635 remaining” value (5-HT1A [1]; 24 hour, striat.) was 12.0 ± 2.7 fmol/mg protein, the “[3H]-WAY-100635 remaining” value (5-HT1A [1]; 72 hours, cortex) was 9.0 ± 0.6 fmol/mg protein and the “[3H]-WAY-100635 remaining” value (5-HT1A [1]; 72 hours, striat.) was 14.0 ± 2.3 fmol/mg protein. For the same compound, the “[3H]-WAY-100635 remaining” value (5-HT1A [1]; 7 days, cortex) was 7.0 ± 0.3 fmol/mg protein, the “[3H]-WAY-100635 remaining” value (5-HT1A [1]; 7 days, striat.) was 15.0 ± 1.7 fmol/mg protein and the “[3H]-WAY-100635 remaining” value (5-HT1A [1]; 14 days, cortex) was 11.0 ± 0.3 fmol/mg protein. The “[3H]-WAY-100635 remaining” value (5-HT1A [1]; 14 days, striat.) was 26.0 ± 0.6 fmol/mg protein, the “Duration of significant inhibition of WAY-100635 binding after a single administration” value (5-HT1A [1]; single administration, ex vivo binding) was “up to 14 days” and the “Reversal of the effect of 8-OH-DPAT on response rate” value (5-HT1A [2]; 3 mg/kg sc vs 8-OH-DPAT 1 mg/kg sc) was “completely reverses”. The “Response Rate” value (5-HT1A [2]; 8-OH-DPAT (1 mg/kg sc) + test compound 3 mg/kg sc) was 2.4 ± 0.3 responses/second, the “Duration of significant inhibition of the 8-OH-DPAT-induced decrease in responding” value (5-HT1A [2]; single dose 3 mg/kg sc, daily 8-OH-DPAT 1 mg/kg sc) was “up to 17 days” and the “Response Rate” value (5-HT1A [2]; single dose 3 mg/kg sc, daily 8-OH-DPAT 1 mg/kg sc, Day 1) was 2.4 ± 0.3 responses/second. For the same compound, the “Response Rate” value (5-HT1A [2]; single dose 3 mg/kg sc, daily 8-OH-DPAT 1 mg/kg sc, Day 4) was 2.1 ± 0.3 responses/second, the “Response Rate” value (5-HT1A [2]; single dose 3 mg/kg sc, daily 8-OH-DPAT 1 mg/kg sc, Day 7) was 2.0 ± 0.3 responses/second and the “Response Rate” value (5-HT1A [2]; single dose 3 mg/kg sc, daily 8-OH-DPAT 1 mg/kg sc, Day 11) was 1.8 ± 0.2 responses/second. The “Response Rate” value (5-HT1A [2]; single dose 3 mg/kg sc, daily 8-OH-DPAT 1 mg/kg sc, Day 14) was 1.7 ± 0.3 responses/second, the “Response Rate” value (5-HT1A [2]; single dose 3 mg/kg sc, daily 8-OH-DPAT 1 mg/kg sc, Day 17) was 1.0 ± 0.2 responses/second and the “Response Rate” value (5-HT1A [2]; single dose 3 mg/kg sc, daily 8-OH-DPAT 1 mg/kg sc, Day 21) was 0.7 ± 0.2 responses/second.
